Laboratory results: ChEMBL document CHEMBL5055630, “Design, synthesis and biological evaluation of indole-based [1,2,4]triazolo[4,3-a] pyridine derivatives as novel microtubule polymerization inhibitors” (Eur J Med Chem, 2021)
The source made the active and inactive calls. No cut-off for these calls is given here.

Key:
[1] = test system: HeLa; experiment: Induction of apoptosis in human HeLa cells assessed as increase in bax protein expression after 24 hrs by Western blot analysis; assay type: functional, cell-based; conditions: dose 10-1000 nM
[2] = test system: HeLa; experiment: Induction of apoptosis in human HeLa cells assessed as necrotic cells at 10 nM incubated for 48 hrs by Annexin V and propidium iodide Staining based assay (reference value: 0.4%); assay type: functional
[3] = test system: HCT-116; experiment: Antiproliferative activity against human HCT-116 assessed as reduction in cell viability measured after 48 hrs by MTT assay; assay type: functional, cell-based; conditions: HCT-116, 48 h
[4] = test system: HeLa; experiment: Inhibition of cell migration in human HeLa cells at 10 nM incubated for 24 hrs by microscopy method relative to control; assay type: functional
[5] = biological target: Tubulin (Homo sapiens) (UniProt P68371+Q9H4B7+P0DPH7+P68366+Q13509+Q71U36+P04350+Q3ZCM7+P07437+P68363+Q9BQE3+Q6PEY2+Q13885+Q9BVA1+Q9BUF5); experiment: Induction of microtubule disruption in human Hela cells assessed as fragmented and disassembled microtubule network in cytosol at 10 to 50 nM incubated for 24 hrs by AlexaFluor 488 dye/DAPI staining based immunofluorescence assay; assay type: cell-based; conditions: dose 10-50 nM
[6] = test system: HeLa; experiment: Induction of cell cycle arrest in human HeLa cells assessed as accumulation of cells at G2/M phase at 5 nM incubated for 24 hrs by propidium iodide staining based flow cytometry analysis; assay type: functional
[7] = Metabolic stability in human liver microsomes assessed as parent compound remaining after 30 mins; assay type: ADME, Microsome; conditions: read-out: Stability
[8] = test system: HeLa; experiment: Induction of apoptosis in human HeLa cells assessed as reduction in Bcl-2 protein expression after 24 hrs by Western blot analysis; assay type: functional, cell-based; conditions: dose 10-1000 nM
[9] = Metabolic stability in human liver microsomes assessed as half life; assay type: ADME, Microsome
[10] = test system: HeLa; experiment: Induction of cell cycle arrest in human HeLa cells assessed as reduction in Cdc25c expression at 10 to 1000 nM measured after 24 hrs by immunoblotting assay; assay type: functional, cell-based; conditions: dose 10-1000 nM
[11] = test system: HeLa; experiment: Inhibition of cell migration in human HeLa cells at 25 nM incubated for 24 hrs by microscopy method relative to control; assay type: functional
[12] = biological target: Tubulin; experiment: Inhibition of tubulin polymerization (unknown origin) assessed as fluorescence intensity measured for 90 mins by DAPI based microplate reader; assay type: functional, Homo sapiens
[13] = test system: HeLa; experiment: Induction of apoptosis in human HeLa cells assessed as increase in cleaved caspase 3 protein expression after 24 hrs by Western blot analysis; assay type: functional, cell-based; conditions: dose 10-1000 nM
[14] = test system: HeLa; experiment: Induction of cell cycle arrest in human HeLa cells assessed as accumulation of cells at G2/M phase at 50 nM incubated for 24 hrs by propidium iodide staining based flow cytometry analysis; assay type: functional
[15] = Metabolic stability in human liver microsomes assessed as parent compound remaining measured immediately after compound addition; assay type: ADME, Microsome; conditions: read-out: Stability
[16] = test system: HeLa; experiment: Inhibition of cell migration in human HeLa cells at 5 nM incubated for 24 hrs by microscopy method relative to control; assay type: functional
[17] = test system: HeLa; experiment: Induction of cell cycle arrest in human HeLa cells assessed as accumulation of cells at G2/M phase at 10 nM incubated for 24 hrs by propidium iodide staining based flow cytometry analysis; assay type: functional
[18] = test system: HeLa; experiment: Induction of apoptosis in human HeLa cells assessed as reduction in Bcl-xl protein expression after 24 hrs by Western blot analysis; assay type: functional, cell-based; conditions: dose 10-1000 nM
[19] = Metabolic stability in human liver microsomes assessed as parent compound remaining after 15 mins; assay type: ADME, Microsome; conditions: read-out: Stability
[20] = test system: HeLa; experiment: Induction of apoptosis in human HeLa cells assessed as increase in cleaved-PARP 1 protein expression after 24 hrs by Western blot analysis; assay type: functional, cell-based; conditions: dose 10-1000 nM
[21] = test system: HeLa; experiment: Antiproliferative activity against human HeLa assessed as reduction in cell viability measured after 48 hrs by MTT assay; assay type: functional, cell-based
[22] = test system: HeLa; experiment: Induction of cell cycle arrest in human HeLa cells assessed as reduction in Cdc2 expression at 10 to 1000 nM measured after 24 hrs by immunoblotting assay; assay type: functional, cell-based; conditions: dose 10-1000 nM
[23] = test system: HeLa; experiment: Induction of apoptosis in human HeLa cells assessed as necrotic cells at 50 nM incubated for 48 hrs by Annexin V and propidium iodide Staining based assay (reference value: 0.4%); assay type: functional
[24] = test system: Tubulin beta; experiment: Inhibition of beta-tubulin polymerization in human HeLa cells assessed as inhibition of EBI-beta-tubulin adduct formation measured by Western blot-based EBI competition assay; assay type: cell-based
[25] = test system: HeLa; experiment: Induction of apoptosis in human HeLa cells assessed as viable cells at 50 nM incubated for 48 hrs by Annexin V and propidium iodide Staining based assay (reference value: 98.5 %); assay type: functional; conditions: read-out: Activity
[26] = Metabolic stability in human liver microsomes assessed as parent compound remaining after 60 mins; assay type: ADME, Microsome; conditions: read-out: Stability
[27] = test system: HeLa; experiment: Induction of cell cycle arrest in human HeLa cells assessed as increase in cyclin B1 level at 10 to 1000 nM measured after 24 hrs by immunoblotting assay; assay type: functional, cell-based; conditions: dose 10-1000 nM
[28] = test system: HeLa; experiment: Induction of apoptosis in human HeLa cells assessed as viable cells at 10 nM incubated for 48 hrs by Annexin V and propidium iodide Staining based assay (reference value: 98.5 %); assay type: functional; conditions: read-out: Activity
[29] = test system: HeLa; experiment: Induction of apoptosis in human HeLa cells assessed as increase in bad protein expression after 24 hrs by Western blot analysis; assay type: functional, cell-based; conditions: dose 10-1000 nM
[30] = test system: HeLa; experiment: Induction of apoptosis in human HeLa cells assessed as necrotic cells at 25 nM incubated for 48 hrs by Annexin V and propidium iodide Staining based assay (reference value: 0.4%); assay type: functional
[31] = test system: HeLa; experiment: Induction of apoptosis in human HeLa cells assessed as late apoptotic cells at 10 nM incubated for 48 hrs by Annexin V and propidium iodide Staining based assay (reference value: 1 %); assay type: functional
[32] = test system: HeLa; experiment: Induction of apoptosis in human HeLa cells assessed as late apoptotic cells at 25 nM incubated for 48 hrs by Annexin V and propidium iodide Staining based assay (reference value: 1 %); assay type: functional
[33] = test system: HeLa; experiment: Induction of apoptosis in human HeLa cells assessed as early apoptotic cells at 10 nM incubated for 48 hrs by Annexin V and propidium iodide Staining based assay (reference value: 0.2%); assay type: functional
[34] = test system: HeLa; experiment: Induction of apoptosis in human HeLa cells assessed as late apoptotic cells at 50 nM incubated for 48 hrs by Annexin V and propidium iodide Staining based assay (reference value: 1 %); assay type: functional
[35] = test system: HeLa; experiment: Induction of apoptosis in human HeLa cells assessed as early apoptotic cells at 25 nM incubated for 48 hrs by Annexin V and propidium iodide Staining based assay (reference value: 0.2%); assay type: functional
[36] = test system: A549; experiment: Antiproliferative activity against human A549 assessed as reduction in cell viability measured after 48 hrs by MTT assay; assay type: functional, cell-based; conditions: A549, 48 h
[37] = test system: HeLa; experiment: Induction of apoptosis in human HeLa cells assessed as early apoptotic cells at 50 nM incubated for 48 hrs by Annexin V and propidium iodide Staining based assay (reference value: 0.2%); assay type: functional
[38] = test system: HeLa; experiment: Induction of apoptosis in human HeLa cells assessed as viable cells at 25 nM incubated for 48 hrs by Annexin V and propidium iodide Staining based assay (reference value: 98.5 %); assay type: functional; conditions: read-out: Activity
[39] = test system: MCF7; experiment: Antiproliferative activity against human MCF7 assessed as reduction in cell viability measured after 48 hrs by MTT assay; assay type: functional, cell-based; conditions: MCF7, 48 h
[40] = Metabolic stability in human liver microsomes assessed as parent compound remaining after 90 mins; assay type: ADME, Microsome; conditions: read-out: Stability

IC50 [3]: 33 nM
Activity [5]: Active
remaining at 0.5 h [7]: 55.5%
half-life [9]: 51.7 min
IC50 [12]: 1640 nM
remaining at 0 min [15]: 100%
remaining at 0.25 h [19]: 75.9%
IC50 [21]: 15 nM
IC50 [24]: Dose-dependent effect
remaining at 1 h [26]: 37.5%
IC50 [36]: 69 nM
IC50 [39]: 49 nM
remaining at 1.5 h [40]: 30.1%
Structure (SMILES): COc1cc(-c2nnc3c(OC)cc(-c4ccc5c(ccn5C)c4)cn23)cc(OC)c1OC
Activity [1]: Dose-dependent effect
Activity [2]: 2.4%
inhibition at 0.01 µM [4]: 32.2%
Activity [6]: 17.4%
Activity [8]: Dose-dependent effect
Activity [10]: Active
inhibition at 0.025 µM [11]: 44.3%
Activity [13]: Dose-dependent effect
Activity [14]: 77%
inhibition at 0.005 µM [16]: 22.1%
Activity [17]: 37.7%
Activity [18]: Dose-dependent effect
Activity [20]: Dose-dependent effect
Activity [22]: Active
Activity [23]: 2.6%
viability at 0.05 µM [25]: 4.2%
Activity [27]: Active
viability at 0.01 µM [28]: 41.8%
Activity [29]: Dose-dependent effect
Activity [30]: 3.6%
Activity [31]: 48.8%
Activity [32]: 54%
Activity [33]: 7.1%
Activity [34]: 65.7%
Activity [35]: 11.1%
Activity [37]: 27.6%
viability at 0.025 µM [38]: 31.2%
